Assay results reported in patent publication US4753953A, “Pyridonecarboxylic acid derivatives and antibacterial pharmaceutical compositions thereof” (priority 1985, dated 1988).
Values after ≈ are worked out from the molar mass of the structure shown. Read-outs that look alike come from different tables or passages of the source.

Tests used:
[1] = test system: Staphylococcus aureus 209 P; test: MIC, in vitro antibacterial activity (standard strains); type: cell-based; settings: Staphylococcus aureus, 209P; 10^6 cells/ml; Gram +; read-out: MIC
S. aureus Smith = test: as above; type: cell-based, Staphylococcus aureus; settings: Staphylococcus aureus; 10^6 cells/ml; Gram +; read-out: MIC
S. epidermidis IID 866 = test: as above; type: cell-based; settings: Staphylococcus epidermidis, IID866; 10^6 cells/ml; Gram +; read-out: MIC
[2] = test system: Streptococcus pyogenes (S-8); test: as above; type: cell-based; settings: Streptococcus pyogenes; 10^6 cells/ml; Gram +; read-out: MIC
S. pyogenes IID 692 = test: as above; type: cell-based, Streptococcus pyogenes; settings: Streptococcus pyogenes, IID692; 10^6 cells/ml; Gram +; read-out: MIC
S. pneumoniae IID 552 = test: as above; type: cell-based; settings: Streptococcus pneumoniae, IID552; 10^6 cells/ml; Gram +; read-out: MIC
[3] = test system: Escherichia coli NIHJ JC-2; test: as above; type: cell-based; settings: Escherichia coli, NIHJJC2; 10^6 cells/ml; Gram -; read-out: MIC
E. coli ML 4707 = test: as above; type: cell-based, Escherichia coli; settings: Escherichia coli, ML4707, 10^6 cells/ml; Gram -; Table 1; read-out: MIC
[4] = test system: Proteus vulgaris IFO 3167; test: as above; type: cell-based; settings: Proteus vulgaris, IFO3167; 10^6 cells/ml; Gram -; read-out: MIC
P. mirabilis IID 994 = test: as above; type: cell-based; settings: Proteus mirabilis, IID994; 10^6 cells/ml; Gram -; read-out: MIC
[5] = test system: Klebsiella pneumoniae KY(GN)6445; test: as above; type: cell-based; settings: Klebsiella pneumoniae; 10^6 cells/ml; Gram -; read-out: MIC
K. pneumoniae 1-220S = test: as above; type: cell-based, Klebsiella pneumoniae; settings: Klebsiella pneumoniae, 1220S; 10^6 cells/ml; Gram -; read-out: MIC
[6] = test system: Enterobacter cloacae IID 977; test: as above; type: cell-based; settings: Enterobacter cloacae, IID977; 10^6 cells/ml; Gram -; read-out: MIC
Shigella sonnei IID 969 = test: as above; type: cell-based; settings: Shigella sonnei, IID969; 10^6 cells/ml; Gram -; read-out: MIC
Method: Minimal inhibitory concentrations (MICs) were determined in accordance with the method recommended by Japan Society of Chemotherapy.

[7] = test system: Pseudomonas aeruginosa V-1; test: as above; type: cell-based; settings: Pseudomonas aeruginosa, V1
P. maltophilia GIFU 2491 = test: as above; type: cell-based; settings: Stenotrophomonas maltophilia, GIFU2491; 10^6 cells/ml; Gram -; read-out: MIC
[8] = test system: Yersinia enterocolitica IID 981; test: as above; type: cell-based; settings: Yersinia enterocolitica, IID981; 10^6 cells/ml; Gram -; read-out: MIC
[9] = test system: Acinetobacter anitratus IID 876; test: as above; type: cell-based; settings: Acinetobacter calcoaceticus, IID876; 10^6 cells/ml; Gram -; read-out: MIC
[10] = test system: Alcaligenes faecalis 0114002; test: as above; type: cell-based; settings: Alcaligenes faecalis, 0114002; 10^6 cells/ml; Gram -; read-out: MIC
[11] = test system: Bacteroides fragilis GM 7000; test: as above; type: cell-based; settings: Bacteroides fragilis, GM7000; 10^6 cells/ml; Gram -; read-out: MIC
B. fragilis 0558 = test: as above; type: cell-based, Bacteroides fragilis; settings: Bacteroides fragilis, 0558; 10^6 cells/ml; Gram -; read-out: MIC
B. fragilis 25285 = test: as above; type: cell-based, Bacteroides fragilis; settings: Bacteroides fragilis, 25285; 10^6 cells/ml; Gram -; read-out: MIC
F. necrophorum S-45 = test: as above; type: cell-based; settings: Fusobacterium necrophorum, S45; 10^6 cells/ml; Gram -; read-out: MIC
F. varium KYA 8501 = test: as above; type: cell-based; settings: Fusobacterium varium, KYA8501; 10^6 cells/ml; Gram -; read-out: MIC
E. limosum KYA 8486 = test: as above; type: cell-based; settings: Eubacterium limosum, KYA8486; 10^6 cells/ml; Gram +; read-out: MIC
[12] = test system: Propionibacterium acens 11828; test: as above; type: cell-based; settings: Propionibacterium, 11828; 10^6 cells/ml; Gram +; read-out: MIC
[13] = test system: Peptococcus magnus KY 017; test: as above; type: cell-based; settings: Finegoldia magna, KY017; 10^6 cells/ml; Gram +; read-out: MIC
[14] = test system: Clostridium difficile I-E; test: as above; type: cell-based; settings: Clostridioides difficile; 10^6 cells/ml; Gram +
C. perfringens KYA 13123 = test: microbe, parasite or virus in culture; type: cell-based; settings: Clostridium perfringens, KYA13123
C. ramosum = test: MIC, in vitro antibacterial activity (standard strains); type: cell-based; settings: Thomasclavelia ramosa; 10^6 cells/ml; Gram +; read-out: MIC
Pst. micros UPI 5464-1 = test: as above; type: cell-based; settings: Parvimonas micra, UPI54641; 10^6 cells/ml; Gram +; read-out: MIC
[15] = test system: Veillonella parvula KYA 10790; test: as above; type: cell-based; settings: Veillonella parvula, KYA10790; 10^6 cells/ml; Gram -; read-out: MIC

| Structure (SMILES) | MIC [1] [µg/mL] | MIC (S. aureus Smith) [µg/mL] | MIC (S. epidermidis IID 866) [µg/mL] | MIC [2] [µg/mL] | MIC (S. pyogenes IID 692) [µg/mL] | MIC (S. pneumoniae IID 552) [µg/mL] | MIC [3] [µg/mL] | MIC (E. coli ML 4707) [µg/mL] | MIC [4] [µg/mL] | MIC (P. mirabilis IID 994) [µg/mL] | MIC [5] [µg/mL] | MIC (K. pneumoniae 1-220S) [µg/mL] | MIC [6] [µg/mL] | MIC (Shigella sonnei IID 969) [µg/mL] | MIC (P. maltophilia GIFU 2491) [µg/mL] | MIC [8] [µg/mL] | MIC [9] [µg/mL] | MIC [10] [µg/mL] | MIC [11] [µg/mL] | MIC (B. fragilis 0558) [µg/mL] | further results |
| --- | --- | --- | --- | --- | --- | --- | --- | --- | --- | --- | --- | --- | --- | --- | --- | --- | --- | --- | --- | --- | --- |
| C[C@H]1CN(c2c(F)cc3c(=O)c(C(=O)O)cn(CCF)c3c2Cl)C[C@H]1N (relative stereo) [Example 27, 7-(cis-3-Amino-4-methyl-1-pyrrolidinyl)-8-chloro-6-fluoro-1-(2-fluoroethyl)-1,4-dihydro-4-oxo-3-quinolinecarboxylic acid] | 0.2 (≈ 0.518 µM) | 0.2 (≈ 0.518 µM) | 0.2 (≈ 0.518 µM) | 0.78 (≈ 2.02 µM) | 0.78 (≈ 2.02 µM) | 0.78 (≈ 2.02 µM) | 0.05 (≈ 0.13 µM) | 0.05 (≈ 0.13 µM) | 0.05 (≈ 0.13 µM) | 0.1 (≈ 0.259 µM) | 0.1 (≈ 0.259 µM) | 0.2 (≈ 0.518 µM) | 0.1 (≈ 0.259 µM) | 0.78 (≈ 2.02 µM) | 1.56 (≈ 4.04 µM) | 0.1 (≈ 0.259 µM) | 1.56 (≈ 4.04 µM) | 0.78 (≈ 2.02 µM) | 1.56 (≈ 4.04 µM) | 1.56 (≈ 4.04 µM) | MIC [7]: 0.39 µg/mL (≈ 1.01 µM); MIC (B. fragilis 25285): 1.56 µg/mL (≈ 4.04 µM); MIC (F. necrophorum S-45): 1.56 µg/mL (≈ 4.04 µM); MIC (F. varium KYA 8501): 6.25 µg/mL (≈ 16.2 µM); MIC (E. limosum KYA 8486): 6.25 µg/mL (≈ 16.2 µM); MIC [12]: 12.5 µg/mL (≈ 32.4 µM); MIC [13]: 0.78 µg/mL (≈ 2.02 µM); MIC [14]: 6.25 µg/mL; MIC (C. perfringens KYA 13123): 0.39 µg/mL (≈ 1.01 µM); MIC (C. ramosum): 25 µg/mL (≈ 64.8 µM); MIC (Pst. micros UPI 5464-1): 0.39 µg/mL (≈ 1.01 µM); MIC [15]: 0.39 µg/mL (≈ 1.01 µM) |
| CNCC1CN(c2c(F)cc3c(=O)c(C(=O)O)cn(C4CC4)c3c2Cl)CC1C (stereo not shown) [Example 12, 8-Chloro-1-cyclopropyl-6-fluoro-1,4-dihydro-7-(3-methylaminomethyl-4-methyl-1-pyrrolidinyl)-4-oxo-3-quinolinecarboxylic acid] | 0.05 (≈ 0.123 µM) | 0.05 (≈ 0.123 µM) | 0.05 (≈ 0.123 µM) | 0.05 (≈ 0.123 µM) | 0.05 (≈ 0.123 µM) | 0.05 (≈ 0.123 µM) | 0.05 (≈ 0.123 µM) | 0.025 (≈ 0.0613 µM) | 0.05 (≈ 0.123 µM) | 0.2 (≈ 0.49 µM) | 0.05 (≈ 0.123 µM) | 0.1 (≈ 0.245 µM) | 0.2 (≈ 0.49 µM) | 0.025 (≈ 0.0613 µM) | 0.2 (≈ 0.49 µM) | 0.1 (≈ 0.245 µM) | 0.2 (≈ 0.49 µM) | 0.39 (≈ 0.956 µM) | 0.2 (≈ 0.49 µM) | 0.1 (≈ 0.245 µM) | MIC ([7]; 10^6 cells/ml, Gram -, read-out: MIC): 0.39 µg/mL (≈ 0.956 µM); MIC (B. fragilis 25285): 0.1 µg/mL (≈ 0.245 µM); MIC (F. necrophorum S-45): 0.2 µg/mL (≈ 0.49 µM); MIC (F. varium KYA 8501): 0.78 µg/mL (≈ 1.91 µM); MIC (E. limosum KYA 8486): 0.39 µg/mL (≈ 0.956 µM); MIC [12]: 0.78 µg/mL (≈ 1.91 µM); MIC [13]: 0.05 µg/mL (≈ 0.123 µM); MIC [14]: 0.2 µg/mL; MIC (C. perfringens KYA 13123): 0.1 µg/mL (≈ 0.245 µM); MIC (C. ramosum): 0.39 µg/mL (≈ 0.956 µM); MIC (Pst. micros UPI 5464-1): 0.39 µg/mL (≈ 0.956 µM); MIC [15]: 0.39 µg/mL (≈ 0.956 µM) |
